What all share (assay type): cell-based
The subject of one experiment is PKR. As to the kind of experiment: Western blot of phosphorylated PKR in AraC treated cells. To be noted: AraC treated cells (0, 1, 5 μM AraC), normalized to total PKR.
Experiment [1] concerns 28S rRNA snoRA22 sites U4966 and U4975. As to the kind of experiment: Low dNTP CMCT qPCR assay of rRNA pseudouridylation. To be noted: AraC cells (THP1). As to the method:
For analysis of 2′O-methylation, RNA was prepared from indicated cells. Reverse transcription (as described above in qPCR) was performed with primers in the reverse orientation from the modification site on ribosomal RNA. Two different dNTP concentrations were used for each primer, low (0.025 mM) and high (2.5 mM). qPCR was done with the resulting cDNA using primers at forward and reverse orientation to the modified sites. Fold change in modification was calculated based on difference of Ct values in the low and high dNTP conditions. For analyzing pseudouridylation, first the RNA was treated with CMCT (1-cyclohexyl-(2-morpholinoethyl) carbodiimide metho-p-toluene sulfonate) under alkaline conditions. Rest of the experiment was done as described above for 2′O-methylation.

Another experiment concerns FXR1. As to the kind of experiment: Western blot of FXR1 levels in AraC treated THP1 cells. The following applies: AraC treated surviving THP1 cells compared to untreated (1 μM AraC, FIG. 1A). On the procedure: (§1) THP1 cells were cultured in […] media supplemented with 10% fetal bovine serum (FBS), 2 mM L-Glutamine, 100 μg/mL streptomycin and 100 U/ml penicillin at 37° C. in 5% CO2. SS THP1 cells were prepared by washing with PBS followed by serum-starvation at a density of 2×10^5 cells/mL and AraCS cells, by treatment with indicated concentrations of AraC for indicated periods of time. THP1 (TIB-202) and MV4:11 (CRL-9591) were obtained from ATCC. MOLM13 (ACC554) were obtained from DSMZ. Cell lines kindly provided by David Scadden.
(§2) Cells were collected and resuspended in lysis buffer containing 40 mM Tris-HCl (pH 7.4), 6 mM MgCl2, 150 mM NaCl, 0.1% NP-40, 1 mM DTT, […], 17.5 mM β-glycerophosphate, 5 mM NaF and protease inhibitors. Samples containing 80 μg of protein were loaded onto 4%-20% gradient SDS-PAGE (Bio-Rad) or 16% SDS-PAGE (Invitrogen), transferred to PVDF membranes and processed for immunoblotting.
Antibodies against FXR1 (used for Western), Actin, Tubulin were from Millipore; NOLC1, DDX21, PolR1D, RPLP0, RPLP2, RPL29, RPL11, FXR1 (used for Immunoprecipitation) were from Protein Tech; PKR, P—PKR, EIF2α, P-EIF2α, GCN2 (used for immunoprecipitation) were from Cell Signaling; P-GCN2, GCN2 (used for Western) were from abcam.

The test system of a further experiment is FXR1 OE cells (THP1). As to the kind of experiment: Chemosurvival (fraction of cell viability) of FXR1 OE cells treated with AraC plus inhibitor. As to the method: as §1
THP1 FXR1 OE cell lines were created by infecting cells with an FXR1 containing retroviral vector for constitutive over expression of FXR1. Corresponding control cell lines were made by infection with empty vector.
(§3) Cytarabine (AraC), Trans-ISRIB, FX-1, and Toyocamycin were obtained from Cayman Chemicals. For polysome analysis, FXR1 OE and control cells were treated with 1 μM trans-ISRIB for 24 h. For cell viability FXR1 OE and control cells were treated individually or with a combination of 5 μM AraC and 1 μM trans-ISRIB for 24 h; 100 nM Toyocamycin and 1 μM AraC; 10 μM FX-1 and 5 μM AraC.

The subject of another experiment is G0 cells (THP1). Nature of the experiment: Chemosurvival of G0 cells treated with ISRIB and AraC. To be noted: ISRIB and AraC (FIG. 4H). As to the method: as §1, §3
The subject of a further experiment is ATF4. Nature of the experiment: Western blot of non-canonical translation target ATF4 with ISRIB. The following applies: in the presence of ISRIB. On the procedure: as §2
Experiment [2] relates to FXR1-overexpression cells. Nature of the experiment: Polysome analysis followed by qPCR of mRNAs, with or without ISRIB. The following applies: FXR1 OE cells, 1 μM trans-ISRIB for 24 h. On the procedure: Sucrose was dissolved in lysis buffer containing 100 mM KCl, 5 mM MgCl2, 2 mM DTT and 10 mM Tris-HCl (pH 7.4). Sucrose gradients from 10% to 55% were prepared in ultracentrifuge tubes (Beckman). Harvested cells were rinsed with ice-cold PBS and resuspended in lysis buffer with 1% Triton X-100 and 40 U/mL […] (New England Biolabs) for 20 minutes with intermittent tapping on ice. After centrifugation of cell lysates at 12,000×g for 20 minutes, supernatants were loaded onto sucrose gradients followed by ultracentrifugation (Beckman Coulter Optima L90) at 32,500×rpm at 4° C. for 80 min in the SW40 rotor. Samples were separated by density gradient fractionation system (Biocomp Piston Gradient Fractionation). RNAs were purified by using TRIzol (Invitrogen) from heavy polysome fractions and whole cell lysates. The synthesized cDNA probes from WT Expression Kit (Ambion) were hybridized to Gene Chip Human Transcriptome Array 2.0 (Affymetrix) and analyzed by the Partners Healthcare Center for Personalized Genetic Medicine Microarray and BUMC facilities. Gene ontology analysis for differentially expressed translatome or proteome was conducted by DAVID 6.7 tools. Molecular signatures enriched in FXR1 OE and Control cells were identified by Gene Set Enrichment Analysis (GSEA).
Total RNA was isolated using TRIzol (Invitrogen) according to the manufacturer's instructions. […]

SMILES strings stand for the structures.

These results are taken from patent US20250019700A1, “TREATING CHEMORESISTANT FORMS OF LEUKEMIA AND OTHER CANCERS THAT OVEREXPRESS RNA BINDING PROTEIN FXR1” (The General Hospital Corporation, priority 2021, published 2025).

Description for PKR: Cells were collected and resuspended in lysis buffer containing 40 mM Tris-HCl (pH 7.4), 6 mM MgCl2, 150 mM NaCl, 0.1% NP-40, 1 mM DTT, 20 mM, 17.5 mM β-glycerophosphate, 5 mM NaF and protease inhibitors. Samples containing 80 μg of protein were loaded onto 4%-20% gradient SDS-PAGE (Bio-Rad) or 16% SDS-PAGE (Invitrogen), transferred to PVDF membranes and processed for immunoblotting. Antibodies against FXR1 (used for Western), Actin, Tubulin were from Millipore; NOLC1, DDX21, PolR1D, RPLP0, RPLP2, RPL29, RPL11, FXR1 (used for Immunoprecipitation) were from Protein Tech; PKR, P—PKR, EIF2α, P-EIF2α, GCN2 (used for immunoprecipitation) were from Cell Signaling; P-GCN2, GCN2 (used for Western) were from abcam.

Regarding `Nc1ccn([C@@H]2O[C@H](CO)[C@@H](O)[C@@H]2O)c(=O)n1` [AraC, Cytarabine], the “phosphorylation and activation of PKR” value in the experiment on PKR was “increased phosphorylation and activation”. For the same compound, the “rRNA pseudouridylation at snoRA22 sites on 28S at U4966 and U4975” value in experiment [1] is “increases”. Moreover, in the experiment on FXR1, the FXR1 protein level entry is “increases”.

Take `O=C(COc1ccc(Cl)cc1)NC1CCC(NC(=O)COc2ccc(Cl)cc2)CC1` (stereo not drawn) [ISRIB]: the chemosurvival entry in the experiment with FXR1 OE cells (THP1) (FXR1 OE cells, 1 μM trans-ISRIB combined with 5 μM AraC, 24 h, compared to buffer and AraC) is recorded as “reduced chemosurvival”; in the experiment with G0 cells (THP1), “reduced chemosurvival”. Besides, in the experiment on ATF4, the “level of known non-canonical targets such as ATF4” value was “decrease”. The “polysome association of mRNAs that are upregulated in FXR1-overexpressing cells” value in experiment [2] was “reduced polysome association”. Besides, in experiment [2], the “polysome association of other genes like vinculin” value is given as “without affecting”.

For the compound `N#Cc1cn([C@@H]2O[C@H](CO)[C@@H](O)[C@H]2O)c2ncnc(N)c12` [Toyocamycin], the chemosurvival entry in the experiment on FXR1 OE cells (THP1) (100 nM Toyocamycin and 1 μM AraC, FXR1 OE and control cells (FIG. 4I)) is “decreased”.
